# Assay results published in PMC11239005, “Preclinical studies of RA475, a guanidine-substituted spirocyclic candidate RPN13/ADRM1 inhibitor for treatment of ovarian cancer” (PLOS ONE, 2024).
# Tested on: MDA-MB-468 cells
# Test: Surface Annexin V display by flow cytometry, MDA-MB-468
# Assay type: cell-based
# Details: MDA-MB-468, 12 h; RA475 1 or 2 μM, ixazomib 1 μM
# Experimental: The percentage of cells initiating apoptosis was assessed with the annexin V FITC assay kit. The cells (2 × 10^5 cells/well) were treated with the described compounds at selected concentrations for 12 h or 16 h, as indicated. The cells were then collected, washed with PBS, resuspended in 100 μL of annexin V-FITC and 7-AAD dual-stain solution (3 μL Annexin V and 3 μL 7AAD, Catalog Number; 559763-BD bioscience), and incubated 20 min in the dark. The samples were then analyzed via flow cytometry using FlowJo V10 software. All experiments were repeated three times.
# Supplementary file pone.0305710.s006.tif: S6 Fig RA475 induced apoptosis in a triple negative breast cancer cell line. […] (TIF)
smiles,measurement,value
"Cl.Cl.N#Cc1ccc(/C=C2/C(=O)/C(=C/c3ccc(C#N)cc3)C23CCN(C(=N)N)CC3)cc1 [RA475, 1,3-bis((E)-4-cyanobenzylidene)-2-oxo-7-azaspiro[3.5]nonane-7-carboximidamide dihydrochloride]",apoptosis by surface Annexin V display,initiated apoptosis
